Source: patent publication US20220378706A1, “PHARMACEUTICAL COMPOSITION COMPRISING PDE9 INHIBITOR” (Eisai R&D Management Co., Ltd., priority 2017, published 2022)
Several values for one entry are separate records, joined by “and”; a condition that tells them apart may be missing. Equal entries are not always repeated. Where two headings read alike, the source gives them in different places.

Test: Single dose clinical study: plasma Compound A pharmacokinetics
Format: in vivo, human
Conditions: for AUC(0-inf) / Cmax / Vd/F / half-life / Tmax / AUC(0-t): human, po; for AUC(0-inf): read-out: AUC(0-inf) GM; for Tmax: read-out: tmax Median; for tlag Median (Min, Max): Part B 100 mg cohort
Procedure: This was a single center, single dose, randomized, double blind, placebo controlled study in healthy subjects. It consisted of 4 parts: Parts A, B, C, and D. Each of the four study parts had 2 phases: Prerandomization Phase and Randomization Phase. The Prerandomization Phase lasted up to 30 days and consisted of a Screening Period and a Baseline Period, during which each subject's study eligibility was determined and baseline assessments were performed.
In Part A, there were 8 sequential cohorts of healthy adult subjects (18-50 years of age). Subjects were randomly assigned to Compound A or placebo in a ratio of 6:2, respectively. Subjects in the Compound A cohorts were treated with single ascending doses of 10, 25, 50, 100, 200, 400, 800, or 1200 mg.
In Part B, there were 4 cohorts of healthy adult subjects (18-50 years of age). There were 8 subjects in Cohort 1, with 6 subjects randomly assigned to receive single doses of Compound A (400 mg) and 2 subjects randomly assigned to receive placebo. There were 7 subjects in Cohort 2 and Cohort 3, each with 6 subjects randomly assigned to receive single doses of Compound A (100 and 200 mg, respectively) and 1 subject randomly assigned to receive placebo. The dose of 100 mg selected in Cohort 2 was based on preliminary analysis of Cohort 1 data; this dose was predicted from PK/PD modeling to achieve a sustained CSF cGMP increase from baseline of approximately 200% when administered to steady state, and thereby provided a potentially therapeutic dose for further evaluation in future studies. There were 7 subjects in Cohort 4, with 6 subjects randomly assigned to receive a single dose of Compound A (50 mg [n=3] or 75 mg [n=3]) and 1 subject randomly assigned to receive placebo. The doses for Cohorts 3 and 4 were selected based on PK/PD modeling of the data in Cohorts 1 and 2.
Subjects in Cohort 2 who had received Compound A 100 mg or placebo under fasted conditions (1st Treatment Period) also participated in an evaluation of food effect on the PK of Compound A (2nd Treatment Period). After a washout period of at least 13 days (or 5 half-lives of Compound A, whichever was longer), subjects were admitted to the clinic for baseline assessments (2nd Baseline Period) and then received a single dose of the same treatment (Compound A 100 mg or placebo) after consuming a high fat and high calorie meal over 30 minutes. Blood PK samples were collected at prespecified time points. Safety evaluations were also assessed. CSF was not collected for PD evaluation during the 2nd Treatment Period. A Follow Up Visit occurred on Day 10 of Treatment Period 2.
In Part C, there was 1 cohort of 8 healthy elderly subjects (65 to 85 years of age) randomly assigned to receive a single dose of Compound A 100 mg or placebo in a ratio of 6:2, respectively.
In Part D, 3 cohorts of healthy adult Japanese subjects were randomized in parallel. There were 7 subjects in each cohort and subjects were randomly assigned to receive single doses of Compound A (25, 100, or 400 mg) or placebo in a ratio of 6:1, respectively.
Blood samples for determination of plasma Compound A concentrations were collected from predose to 216 hours postdose. On Day 1, blood PK samples were collected at predose and postdose 0.5 (30 minutes), 1, 1.5, 2, 3, 4, 5, 6, 8, 12, and 18 hours. Thereafter, samples were collected on Day 2 (24 and 36 hours postdose), Day 3 (48 hours postdose), Day 4 (72 hours postdose), Day 5 (96 hours postdose), Day 6 (120 hours postdose), Day 7 (144 hours postdose), and Day 10 (216 hours postdose).
Blood samples for determination of plasma Compound A concentrations were collected from predose to 216 hours postdose. For all cohorts, blood PK samples were collected on Day 1 at predose and postdose at 0.5 (30 minutes), 1, 1.5, 2, 3, 4, 5, 6, 8, 10, 12, and 18 hours. […]

[1] = plasma, 400 mg, plasma, Non-Japanese Subjects (Parts A,B), single oral 400 mg
[2] = plasma, 400 mg, plasma, healthy adults (Parts A,B), single oral 400 mg, fasted
[3] = plasma, 800 mg, plasma, healthy adults (Parts A,B), single oral 800 mg, fasted
[4] = plasma, 1200 mg, plasma, healthy adults (Parts A,B), single oral 1200 mg, fasted
[5] = plasma, healthy adults (Parts A,B), single oral 10 mg, fasted
[6] = plasma, healthy adults (Parts A,B), single oral 25 mg, fasted
[7] = plasma, healthy adults (Parts A,B), single oral 50 mg, fasted
[8] = plasma, healthy adults (Parts A,B), single oral 75 mg, fasted
[9] = plasma, healthy adults (Parts A,B), single oral 100 mg, fasted
[10] = plasma, healthy adults (Parts A,B), single oral 200 mg, fasted
[11] = plasma, healthy adults (Parts A,B), single oral 400 mg, fasted
[12] = plasma, healthy adults (Parts A,B), single oral 800 mg, fasted
[13] = plasma, healthy adults (Parts A,B), single oral 1200 mg, fasted

With `COc1ncc(C)c(-c2ccc3c(c2)[nH]c(=O)c2cnn([C@H]4CCOC4)c23)c1C` [Compound A, (S)-7-(2-methoxy-3,5-dimethylpyridin-4-yl)-1-(tetrahydrofuran-3-yl)-1H-pyrazolo[4,3-c]quin olin-4(5H)-one] the AUC(0-inf) [1] was 35800 ng·h/mL, the Cmax (plasma, 400 mg, plasma, Non-Japanese Subjects (Parts A,B), single oral 400 mg, read-out: Cmax GM (% CV)) was 827 ng/mL and the Vd/F (plasma, 400 mg, plasma, Non-Japanese Subjects (Parts A,B), single oral 400 mg, read-out: Vz/F GM (% CV)) was 511 L. It also gave a half-life (plasma, 400 mg, plasma, Non-Japanese Subjects (Parts A,B), single oral 400 mg, read-out: t1/2 Mean (SD) (converted)) of 34.5 h, a Tmax [1] of 3 h and an AUC(0-t) (plasma, 400 mg, plasma, healthy adults (Parts A,B), single oral 400 mg, fasted, read-out: AUC(0-24 h) GM) of 12500 ng·h/mL. For the same compound, the AUC(0-t) (plasma, 400 mg, plasma, healthy adults (Parts A,B), single oral 400 mg, fasted, read-out: AUC(0-30 h) GM) was 15200 ng·h/mL, the AUC(0-t) (plasma, 400 mg, plasma, healthy adults (Parts A,B), single oral 400 mg, fasted, read-out: AUC(0-72 h) GM) was 27000 ng·h/mL and the AUC(0-inf) [2] was 36300 ng·h/mL. The AUC(0-t) (plasma, 400 mg, plasma, healthy adults (Parts A,B), single oral 400 mg, fasted, read-out: AUC(0-t) GM) was 35500 ng·h/mL, the Cmax (plasma, 400 mg, plasma, healthy adults (Parts A,B), single oral 400 mg, fasted, read-out: Cmax GM) was 880 ng/mL and the Vd/F (plasma, 400 mg, plasma, healthy adults (Parts A,B), single oral 400 mg, fasted, read-out: Vz/F GM) was 493 L. It also gave a half-life (plasma, 400 mg, plasma, healthy adults (Parts A,B), single oral 400 mg, fasted, read-out: t1/2 Mean (converted)) of 33.2 h, a Tmax [2] of 2.5 h and an AUC(0-t) (plasma, 800 mg, plasma, healthy adults (Parts A,B), single oral 800 mg, fasted, read-out: AUC(0-24 h) GM) of 29200 ng·h/mL. It also gave an AUC(0-t) (plasma, 800 mg, plasma, healthy adults (Parts A,B), single oral 800 mg, fasted, read-out: AUC(0-30 h) GM) of 34500 ng·h/mL, an AUC(0-t) (plasma, 800 mg, plasma, healthy adults (Parts A,B), single oral 800 mg, fasted, read-out: AUC(0-72 h) GM) of 54700 ng·h/mL and an AUC(0-inf) [3] of 65000 ng·h/mL. It also gave an AUC(0-t) (plasma, 800 mg, plasma, healthy adults (Parts A,B), single oral 800 mg, fasted, read-out: AUC(0-t) GM) of 64300 ng·h/mL, a Cmax (plasma, 800 mg, plasma, healthy adults (Parts A,B), single oral 800 mg, fasted, read-out: Cmax GM) of 2570 ng/mL and a Vd/F (plasma, 800 mg, plasma, healthy adults (Parts A,B), single oral 800 mg, fasted, read-out: Vz/F GM) of 438 L. For the same compound, the half-life (plasma, 800 mg, plasma, healthy adults (Parts A,B), single oral 800 mg, fasted, read-out: t1/2 Mean (converted)) was 25.2 h, the Tmax [3] was 3.55 h and the AUC(0-t) (plasma, 1200 mg, plasma, healthy adults (Parts A,B), single oral 1200 mg, fasted, read-out: AUC(0-24 h) GM) was 28500 ng·h/mL. The AUC(0-t) (plasma, 1200 mg, plasma, healthy adults (Parts A,B), single oral 1200 mg, fasted, read-out: AUC(0-30 h) GM) was 34800 ng·h/mL, the AUC(0-t) (plasma, 1200 mg, plasma, healthy adults (Parts A,B), single oral 1200 mg, fasted, read-out: AUC(0-72 h) GM) was 60600 ng·h/mL and the AUC(0-inf) [4] was 79700 ng·h/mL. For the same compound, the AUC(0-t) (plasma, 1200 mg, plasma, healthy adults (Parts A,B), single oral 1200 mg, fasted, read-out: AUC(0-t) GM) was 78400 ng·h/mL, the Cmax (plasma, 1200 mg, plasma, healthy adults (Parts A,B), single oral 1200 mg, fasted, read-out: Cmax GM) was 1780 ng/mL and the Vd/F (plasma, 1200 mg, plasma, healthy adults (Parts A,B), single oral 1200 mg, fasted, read-out: Vz/F GM) was 666 L. The half-life (plasma, 1200 mg, plasma, healthy adults (Parts A,B), single oral 1200 mg, fasted, read-out: t1/2 Mean (converted)) was 31.9 h, the Tmax [4] was 3.02 h and the “tlag Median (Min, Max)” value (plasma, single oral 100 mg, Fasted) was 0 (0.00, 0.00) h. The “tlag Median (Min, Max)” value (plasma, single oral 100 mg, Fed (high-fat meal)) was 0.49 (0.00, 0.88) h, the “CL/F GM” value [5] was 5.41 L/h and the “tlag Median” value [5] was 0.50 h. For the same compound, the “CL/F GM” value [6] was 5.76 L/h, the “tlag Median” value [6] was 0.00 h and the “CL/F GM” value [7] was 6.33 L/h. For the same compound, the “tlag Median” value [7] was 0.00 h, the “CL/F GM” value [8] was 7.57 L/h and the “tlag Median” value [8] was 0.00 h. The “AUC(0-inf) GM” value [9] was 15000 (20.0) h × ng/mL, the “CL/F GM” value [9] was 6.66 L/h and 6.66 (20.1) L/h and the “Cmax GM” value [9] was 373 (19.8) ng/mL. For the same compound, the “t1/2 Mean” value [9] was 28.6 (6.73) h, the “tlag Median” value [9] was 0.00 h and the “CL/F GM” value [10] was 8.93 L/h. The “tlag Median” value [10] was 0.00 h, the “CL/F GM” value [11] was 11.0 L/h and the “tlag Median” value [11] was 0.00 h. The “CL/F GM” value [12] was 12.3 L/h, the “tlag Median” value [12] was 0.00 h and the “CL/F GM” value [13] was 15.1 L/h. For the same compound, the “tlag Median” value [13] was 0.00 h and the “time to quantifiable plasma concentrations postdose (most subjects)” value (single doses of 10 to 1200 mg) was at most 0.5 h.
